# From US8222268B2, “Methods for reducing vein irritation” (Adventrx Pharmaceuticals, Inc., priority 2004, dated 2012)
# Counter-ions that a name gives are not always drawn.
# What was measured:
# [1] = Dialysis test of vinorelbine incorporation into the oil phase of an emulsion; conditions: for effect of stabilizer on vinorelbine incorporation into the oil phase (vinorelbine concentration in PBS): dialysis against PBS pH 7.4, emulsion with […] (w/w) vinorelbine bitartrate, FIG. 1
# Description: The concentration of each stabilizer added into formulation is: 1.57% (w/w) for sodium oleate, 2.73% (w/w) for vitamin E succinate, 2.46% (w/w) for riboflavin-5-phosphate sodium and 2.52% (w/w) for cholesterol sulfate. A formulation without any stabilizer (“control”) and a formulation with extra Phospholipon 90G were also evaluated in the study.
# The drug incorporation into the oil phase was tested using a dialysis method developed specifically for this purpose. This method involved filling 500 mg of an emulsion into a Slide-A-Lyzer dialysis cassette with 10,000 MW cutoffs, placing the cassette in 70 mL phosphate buffered saline (PBS), pH 7.4 and shaking the solution on a platform shaker at 100 RPM.
# [2] = in distilled water; bitartrate salt form; cited from earlier work
Structure (SMILES),effect of stabilizer on vinorelbine incorporation into the oil phase (vinorelbine concentration in PBS) [1],further results
"CCC1=C[C@@H]2CN(C1)Cc1c([nH]c3ccccc13)[C@@](C(=O)OC)(c1cc3c(cc1OC)N(C)[C@H]1[C@@](O)(C(=O)OC)[C@H](OC(C)=O)[C@]4(CC)C=CCN5CC[C@]31[C@@H]54)C2 [vinorelbine, reference compound]",–,incorporation of vinorelbine in the oil phase ([1]; emulsion without a stabilizer): present primarily in the aqueous phase
"Cc1c(C)c2c(c(C)c1OC(=O)CCC(=O)O)CC[C@@](C)(CCC[C@H](C)CCC[C@H](C)CCCC(C)C)O2 [Vitamin E succinate, vitamin E succinate]",most effective stabilizers,–
"Cc1cc2nc3c(=O)[nH]c(=O)nc-3n(C[C@H](O)[C@H](O)[C@H](O)COP(=O)([O-])O)c2cc1C.[Na+] [riboflavin-5-phosphate, riboflavin-5-phosphate sodium]",most effective stabilizers,–
"CCC1=C[C@@H]2CN(C1)Cc1c([nH]c3ccccc13)[C@@](C(=O)OC)(c1cc3c(cc1OC)N(C)[C@H]1[C@@](O)(C(=O)OC)[C@H](OC(C)=O)[C@]4(CC)C=CCN5CC[C@]31[C@@H]54)C2 (relative stereo) [vinorelbine bitartrate, 3′,4′-didehydro-4′-deoxy-C′-norvincaleukoblastine [R-(R*,R*)-2,3-dihydroxybutanedioate (1:2) (salt)]]",–,aqueous solubility [2]: > 1000 mg/mL
CCCCCCCC/C=C\CCCCCCCC(=O)[O-].[Na+] [sodium oleate],most effective stabilizers,"partition of vinorelbine into the aqueous phase ([1]; vinorelbine-to-oleate molar ratio of 1:4 (charge ratio of 1:1), dialysis, 28 hours, FIG. 2): almost completely stopped the partition of vinorelbine into the aqueous phase"
